These compounds were tested against T1, ATM (Homo sapiens, UniProt Q13315) (assay: ATM inhibition test (phosphorylation of Chk2 generated by ionizing radiation, AlphaScreen SureFire)). Settings: phosphorylated Chk2 in NCI-H460 cells, ionizing radiation 8Gy, 1 hour after test compound treatment; read-out: ATM inhibitory activity.
T1 construct: detecting phosphorylation of Chk2 in a human non-small cell lung cancer cell line NCI-H460 (ATCC company); host or cells: NCI-H460 human non-small cell lung cancer cells
Format: cell-based
Outline: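 In NCI-H460 cells, radiation-triggered Chk2 phosphorylation (8Gy, 1 h) is detected by AlphaScreen SureFire following 1 h compound exposure.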

T1 sequence (Q13315 whole entry): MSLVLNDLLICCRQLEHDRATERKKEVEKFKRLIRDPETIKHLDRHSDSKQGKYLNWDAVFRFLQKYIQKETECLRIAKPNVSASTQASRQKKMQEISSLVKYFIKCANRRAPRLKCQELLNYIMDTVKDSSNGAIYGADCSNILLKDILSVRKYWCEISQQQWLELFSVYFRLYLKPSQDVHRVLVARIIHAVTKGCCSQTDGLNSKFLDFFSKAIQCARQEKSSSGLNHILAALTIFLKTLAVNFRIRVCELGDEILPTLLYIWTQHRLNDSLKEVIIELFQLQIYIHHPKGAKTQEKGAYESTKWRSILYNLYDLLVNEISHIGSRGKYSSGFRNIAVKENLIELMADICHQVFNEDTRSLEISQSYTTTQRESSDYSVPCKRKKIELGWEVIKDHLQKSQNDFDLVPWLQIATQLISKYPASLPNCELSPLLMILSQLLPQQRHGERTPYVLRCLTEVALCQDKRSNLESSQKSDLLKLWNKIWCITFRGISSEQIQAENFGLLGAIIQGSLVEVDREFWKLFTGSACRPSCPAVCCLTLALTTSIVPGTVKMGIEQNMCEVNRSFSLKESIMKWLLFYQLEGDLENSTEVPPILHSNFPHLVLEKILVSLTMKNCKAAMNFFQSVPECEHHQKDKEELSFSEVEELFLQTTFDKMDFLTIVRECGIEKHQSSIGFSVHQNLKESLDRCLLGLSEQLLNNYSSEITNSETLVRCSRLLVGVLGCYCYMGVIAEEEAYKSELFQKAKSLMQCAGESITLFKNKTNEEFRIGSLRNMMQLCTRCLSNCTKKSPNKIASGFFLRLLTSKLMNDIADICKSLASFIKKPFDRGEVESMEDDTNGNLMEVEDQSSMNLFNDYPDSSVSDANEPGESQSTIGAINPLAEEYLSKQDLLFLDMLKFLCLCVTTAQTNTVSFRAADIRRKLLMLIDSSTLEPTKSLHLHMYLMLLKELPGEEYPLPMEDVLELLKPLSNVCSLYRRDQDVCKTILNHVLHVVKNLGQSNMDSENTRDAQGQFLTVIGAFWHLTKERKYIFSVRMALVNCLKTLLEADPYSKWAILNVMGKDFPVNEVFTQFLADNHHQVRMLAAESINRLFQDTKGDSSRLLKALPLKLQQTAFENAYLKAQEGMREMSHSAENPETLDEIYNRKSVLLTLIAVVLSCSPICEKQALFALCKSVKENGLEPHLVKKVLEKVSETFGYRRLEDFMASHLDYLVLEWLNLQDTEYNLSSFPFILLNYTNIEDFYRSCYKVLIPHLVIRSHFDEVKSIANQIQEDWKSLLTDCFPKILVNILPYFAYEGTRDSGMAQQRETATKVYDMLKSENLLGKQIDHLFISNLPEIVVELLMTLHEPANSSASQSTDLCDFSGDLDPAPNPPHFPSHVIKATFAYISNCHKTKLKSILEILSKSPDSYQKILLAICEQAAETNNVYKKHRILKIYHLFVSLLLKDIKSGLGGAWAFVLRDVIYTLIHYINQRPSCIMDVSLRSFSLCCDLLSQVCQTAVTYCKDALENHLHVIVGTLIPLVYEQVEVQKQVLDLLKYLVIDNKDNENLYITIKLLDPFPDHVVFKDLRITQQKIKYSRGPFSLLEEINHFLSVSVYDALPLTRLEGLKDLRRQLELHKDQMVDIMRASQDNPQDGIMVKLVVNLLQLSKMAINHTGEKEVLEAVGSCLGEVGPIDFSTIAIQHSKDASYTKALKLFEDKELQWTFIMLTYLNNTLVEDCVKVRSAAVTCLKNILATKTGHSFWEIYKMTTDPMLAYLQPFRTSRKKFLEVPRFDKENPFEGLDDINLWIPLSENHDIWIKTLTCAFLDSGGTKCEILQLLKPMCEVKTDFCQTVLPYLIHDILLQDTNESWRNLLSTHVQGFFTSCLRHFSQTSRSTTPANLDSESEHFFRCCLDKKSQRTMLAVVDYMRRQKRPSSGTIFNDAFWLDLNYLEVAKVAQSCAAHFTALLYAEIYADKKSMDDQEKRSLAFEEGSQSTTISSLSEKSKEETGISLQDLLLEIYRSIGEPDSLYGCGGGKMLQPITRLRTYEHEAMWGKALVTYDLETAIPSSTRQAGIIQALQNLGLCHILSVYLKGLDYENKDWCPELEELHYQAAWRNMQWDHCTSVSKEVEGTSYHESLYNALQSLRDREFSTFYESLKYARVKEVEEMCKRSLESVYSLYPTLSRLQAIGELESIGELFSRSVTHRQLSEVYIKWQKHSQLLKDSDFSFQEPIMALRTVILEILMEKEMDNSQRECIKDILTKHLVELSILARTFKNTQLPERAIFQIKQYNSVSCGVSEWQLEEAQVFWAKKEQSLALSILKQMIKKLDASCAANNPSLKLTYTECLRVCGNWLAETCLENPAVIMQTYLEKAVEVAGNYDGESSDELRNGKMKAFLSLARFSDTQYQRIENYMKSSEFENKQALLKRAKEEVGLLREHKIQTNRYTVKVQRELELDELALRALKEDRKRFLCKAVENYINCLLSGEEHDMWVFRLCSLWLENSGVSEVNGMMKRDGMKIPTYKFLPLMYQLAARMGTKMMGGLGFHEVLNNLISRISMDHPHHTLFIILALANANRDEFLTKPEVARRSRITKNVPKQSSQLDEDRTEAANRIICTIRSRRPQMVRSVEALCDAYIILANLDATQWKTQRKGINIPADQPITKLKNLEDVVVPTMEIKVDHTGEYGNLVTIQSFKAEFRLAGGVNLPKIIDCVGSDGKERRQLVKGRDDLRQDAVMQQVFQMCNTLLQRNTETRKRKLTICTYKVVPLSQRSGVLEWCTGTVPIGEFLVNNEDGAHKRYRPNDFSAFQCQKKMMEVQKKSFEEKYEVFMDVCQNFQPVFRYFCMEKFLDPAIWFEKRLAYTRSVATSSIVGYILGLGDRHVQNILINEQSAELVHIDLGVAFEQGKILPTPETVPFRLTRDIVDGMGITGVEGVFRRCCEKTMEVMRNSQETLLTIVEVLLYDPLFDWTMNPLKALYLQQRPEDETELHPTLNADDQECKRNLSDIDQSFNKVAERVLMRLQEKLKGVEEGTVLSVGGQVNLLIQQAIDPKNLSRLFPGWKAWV

Row | SMILES | IC50 [nM]
1 | COc1ccnc(C(C)Nc2ccc3c(c2)Cc2cccc(-c4cc(N5CCOCC5)cc(=O)[nH]4)c2O3)c1 (single isomer, unassigned) [Example 2-14-86-1, 6-(7-((1-(4-methoxypyridin-2-yl)ethyl)amino)-9H-xanthen-4-yl)-4-morpholinopyridin-2(1H)-one] | 100 to 500
2 | Cc1cccc(C(Nc2ccc3c(c2)Sc2cccc(-c4cc(N5CCOCC5)cc(=O)[nH]4)c2S3)C2CCNC2)n1 (stereo not shown) [Example 1-20-14, 6-(7-(((6-Methylpyridin-2-yl)(pyrrolidin-3-yl)methyl)amino)thianthren-1-yl)-4-morpholino pyridin-2(1H)-one] | 100 to 500
3 | O=c1cc(N2CCOCC2)cc(-c2cccc3c2Sc2ccc(NCCN4CCOCC4)cc2C3)[nH]1 [Example 3-4-1, 4-Morpholino-6-(7-((2-morpholinoethyl)amino)-9H-thioxanthen-4-yl)pyridin-2(1H)-one] | 500 to 2000
4 | Cc1ccc(CNc2ccc3c(c2)Cc2ccnc(-c4cc(N5CCOCC5)cc(=O)[nH]4)c2O3)cn1 [Example 2-42-4, 6-(7-(((6-Methylpyridin-3-yl)methyl)amino)-5H-chromeno[2,3-c]pyridin-1-yl)-4-morpholinopyridin-2(1H)-one] | 100 to 500
5 | COc1ncccc1CNc1ccc2c(c1)Cc1cccc(-c3cc(N4CCOCC4)cc(=O)[nH]3)c1S2 [Example 3-8-8, 6-(7-(((2-Methoxypyridin-3-yl)methyl)amino)-9H-thioxanthen-4-yl)-4-morpholino pyridin-2 (1H)-one] | 500 to 2000
6 | CC(CCN1CCN(C)CC1)Nc1ccc2c(c1)Sc1cccc(-c3cc(N4CCOCC4)cc(=O)[nH]3)c1S2 (stereo not shown) [Example 1-42-2, 6-(7-((4-(4-Methylpiperazin-1-yl)butan-2-yl)amino)thianthren-1-yl)-4-morpholino pyridin-2(1H)-one] | 100 to 500
7 | Nc1ccc2c(c1)Sc1cccc(-c3cc(N4CCOCC4)cc(=O)[nH]3)c1O2 [Example 4-2, 6-(8-Aminophenoxathiin-4-yl)-4-morpholinopyridin-2(1H)-one] | 100 to 500
8 | O=c1cc(N2CCOCC2)cc(-c2cccc3c2Sc2ccc(NC4CCCN(Cc5ccccn5)C4)cc2S3)[nH]1 (stereo not shown) [Example 1-24-3, 4-Morpholino-6-(7-((1-(pyridin-2-ylmethyl)piperidin-3-yl)amino)thianthren-1-yl)pyridin-2 (1H)-one] | 100 to 500
9 | CCCC(Nc1ccc2c(c1)Sc1cccc(-c3cc(N4CCOCC4)cc(=O)[nH]3)c1S2)[C@H](C)N1CCOCC1 (stereo partly drawn) [Example 1-21-1, 6-(7-(((2S)-2-morpholinohexan-3-yl)amino)thianthren-1-yl)-4-morpholinopyridin-2(1H)-one] | 100 to 500
10 | COCCN(C)CCC(Nc1ccc2c(c1)Sc1cccc(-c3cc(N4CCOCC4)cc(=O)[nH]3)c1S2)c1ccc(C)cn1 (single isomer, unassigned) [Example 10-3-3, 6-(7-((3-((2-Methoxyethyl) (methyl)amino)-1-(5-methylpyridin-2-yl)propyl)amino)thiarnthren-l-yl)-4-morpholino pyridin-2(1H)-one] | < 100
11 | Cc1ccc(C(Nc2ccc3c(c2)Sc2cccc(-c4cc(N5CCOCC5)cc(=O)[nH]4)c2S3)[C@H]2CCCN2C)nc1 (single isomer, unassigned) [Example 1-56-4] | 100 to 500
12 | COc1ncccc1CNc1ccc2c(c1)Sc1cccc(-c3cc(N4CCOCC4)cc(=O)[nH]3)c1O2 [Example 4-8-9, 6-(8-(((2-Methoxypyridin-3-yl)methyl)amino)phenoxathiin-4-yl)-4-morpholino pyridin-2 (1H)-one] | 100 to 500
13 | O=c1cc(N2CCOCC2)cc(-c2cccc3c2Oc2ccc(NCc4nccs4)cc2C3)[nH]1 [Example 2-14-31, 4-Morpholino-6-(7-((thiazol-2-ylmethyl)amino)-9H-xanthen-4-yl) pyridin-2(1H)-one] | 100 to 500
14 | O=c1cc(N2CCOCC2)cc(-c2cccc3c2Sc2ccc(NCc4ccno4)cc2C3)[nH]1 [Example 3-6, 6-(7-((isoxazol-5-ylmethyl)amino)-9H-thioxanthen-4-yl)-4-morpholinopyridin-2(1H)-one] | 500 to 2000
15 | Cc1ccc(C(CCCN(C)C)Nc2ccc3c(c2)Sc2cccc(-c4cc(N5CCOCC5)cc(=O)[nH]4)c2S3)nc1 (single isomer, unassigned) [Example 1-51-4, 6-(7-((4-(Dimethylamino)-1-(5-methylpyridin-2-yl)butyl)amino)thianthren-1-yl)-4-morpholino pyridin-2(1H)-one] | 100 to 500
16 | O=c1cc(N2CCOCC2)cc(-c2nccc3c2Oc2ccc(NCc4cc(C5CC5)ccn4)cc2C3)[nH]1 [Example 2-41-6, 6-(7-(((4-Cyclopropylpyridin-2-yl)methyl)amino)-5H-chromeno[2,3-c]pyridin-1-yl)-4-morpliolino pyridin-2 (1H)-one] | 100 to 500
17 | O=c1cc(N2CCOCC2)cc(-c2cccc3c2Oc2ccc(NC4CCN(Cc5cncc(F)c5)CC4)cc2C3)[nH]1 [Example 2-28-18, 6-(7-((1-((5-Fluoropyridin-3-yl)methyl)piperidin-4-yl)amino)-9H-xanthen-4-yl)-4-morpholino pyridin-2(1H)-one] | 100 to 500
18 | CC(Nc1ccc2c(c1)Sc1cccc(-c3cc(N4CCOCC4)cc(=O)[nH]3)c1S2)c1cc(C#N)ncn1 (stereo not shown) [Example 1-12-84, 6-(1-((6-(4-Morpholino-6-oxo-1,6-dihydropyridin-2-yl)thianthren-2-yl)amino)ethyl)pyrimidine-4-carbonitrile] | 100 to 500
19 | O=c1cc(N2CCOCC2)cc(-c2cccc3c2Oc2ccc(NCc4cncc(-c5cccnc5)c4)cc2C3)[nH]1 [Example 2-2-57, 6-(7-(([3,3′-Bipyridin]-5-ylmethyl)amino)-9H-xanthen-4-yl)-4-morpholino pyridin-2 (1H)-one] | 100 to 500
20 | Cc1nccc(CNc2ccc3c(c2)Sc2cccc(-c4cc(N5CCOCC5)cc(=O)[nH]4)c2S3)n1 [Example 1-12-39, 6-(7-(((2-Methylpyrimidin-4-yl)methyl)amino)thianthren-1-yl)-4-morpholino pyridin-2 (1H)-one] | 500 to 2000
21 | N#Cc1cccc(CNc2ccc3c(c2)Cc2ccnc(-c4cc(N5CCOCC5)cc(=O)[nH]4)c2O3)n1 [Example 2-41-15, 6-(((1-(4-Morpholino-6-oxo-1,6-dihydropyridin-2-yl)-5H-chromeno[2,3-c]pyridin-7-yl)amino)methyl)picolinonitrile] | 100 to 500
22 | Cc1ccc(C(Nc2ccc3c(c2)Sc2cccc(-c4cc(N5CCOCC5)cc(=O)[nH]4)c2S3)[C@@H]2CN(C)CCO2)nc1 (single isomer, unassigned) [Example 1-56-11] | < 100
23 | CC(CNc1ccc2c(c1)Sc1cccc(-c3cc(N4CCOCC4)cc(=O)[nH]3)c1S2)N1CCOCC1 (single isomer, unassigned) [Example 1-9-2-2, 4-morpholino-6-(7-((2-morpholinopropyl)amino)thianthren-1-yl)pyridin-2(1H)-one] | 100 to 500
24 | O=c1cc(N2CCOCC2)cc(-c2cccc3c2Oc2ccc(NCc4ccccn4)cc2S3)[nH]1 [Example 4-4-24, 4-Morpholino-6-(8-((pyridin-2-ylmethyl)amino)phenoxathiin-4-yl) pyridin-2(1H)-one] | 100 to 500
25 | COC[C@H](CN1CCOCC1)Nc1ccc2c(c1)Sc1cccc(-c3cc(=O)cc(N4CCOCC4)o3)c1S2 [Example 11-3, (S)-2-(7-((1-methoxy-3-morpholinopropan-2-yl)amino)thianthren-1-yl)-6-morpholino-4H-pyran-4-one] | < 100

From patent publication US9586951B2 (FUJIFILM Corporation, priority 2013, dated 2017)
